Results as given in US8895733B2 (Novartis AG, priority 2010, dated 2014).

How the values were obtained:
Nav 1.7 [1] = molecular target: T1, Nav 1.7 (Homo sapiens, UniProt Q15858); assay: Whole-cell voltage clamp electrophysiology, manual patch clamp (marker b in Table of Examples); assay type: cell-based; settings: marker b: Manual patch clamp data; read-out: Nav 1.7 activity
T1 construct: expressed in transfected cells
Outline: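 Manual whole-cell patch clamp on cells expressing human NaV1.7, compounds applied by microperfusion. Protocol biased to inactivated-state block: holding −60 mV, hyperpolarizing step −120 mV for 100 ms, then depolarization to −20 mV for 25 ms, pulses at 0.1 Hz.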

[2] = system: inflammatory pain induced by intraplantar injection of Complete Freund's Adjuvant; assay: FCA (Freund's Complete Adjuvant) test, model of inflammatory pain; assay type: in vivo; settings: rat, 1 mg/kg p.o., tested 72 h post FCA injection
Description: Compounds of formula (I) may show analgesic activity in the FCA (Freund's Complete Adjuvant) test in the rat, a model of inflammatory pain which is induced by intraplantar injection of Complete Freund's Adjuvant (Stein et al. Pharmac. Biochem. Behav., 1988, 31, 445-451). […] Thus, the local anesthetic effect may not mask the analgesic properties of the compounds (Scott et al., British Journal of Anaesthesia, 1988, 61, 165-8). […] All compounds were tested 72 h post FCA injection.

Nav1.5 = molecular target: T2, Nav1.5 (Homo sapiens, UniProt Q14524); assay: Inhibition of Nav1.5 as measured using QPatch; assay type: cell-based
T2 construct: expressed in transfected cells
Source text: Patch-clamp electrophysiology is considered the gold standard technique for investigation of ion channel function and pharmacology. Using this method, sodium channel currents can be measured in cells, which stably (or transiently) express the sodium channel subtype of interest. Application of compounds during such experiments provides a functional measure of the activity and potency of compounds affecting the ion channel of interest.
Electrophysiological studies can be performed using automated or manual patch-clamp techniques. Automated patch-clamp instruments suitable for this work include the Ion Works HT (MDS), Ion Works Quattro (MDS), PatchLiner (Nanion technologies), Port-A-Patch (Nanion technologies), QPatch (Sophion) or any other suitable platform.
For recording in automated patch-clamp instruments, cells expressing the voltage-gated sodium channel subtype of interest are dispensed in appropriate chips (plates with more than one recording chambers each containing one or more apertures to generate whole-cell patches), as provided by the manufacturer. Typically, the whole-cell perforated patch configuration is used for probing the pharmacology of compounds in automated patch-clamp electrophysiology on sodium channels. Extracellular and intracellular buffers for such experiments are composed according to the literature, or according to the instructions provided by the manufacturer of the instruments. Test solutions, which contain the compounds to be tested, are applied to the cells expressing the sodium channel of interest by a pipetting system, typically integrated into the robots.
A suitable voltage stimulus protocol is used to activate voltage-gated sodium channel proteins of interest. A typical stimulus protocol may consist of sweeps of sequential voltage pulses starting from a holding potential (i.e. −65 mV), to a more positive and depolarising test pulse potential (i.e. −10 mV) and finally to a more negative and hyperpolarising potential (i.e. −100 mV). According to the biophysics of the voltage-gated ion channel of interest and interest in channel configuration the voltages and durations of the pulses as well as the overall frequency of sweeps applied might vary. Accordingly, a stimulus protocol was designed to assess compounds due to their potential to block NaV1.7 channels primarily in inactivated state. Selectivity over other voltage-gated sodium channel members was assessed by protocols that reflect the native function of the channels (i.e. heart rate or firing of neurons).
Inhibition of Nav1.5 by Compounds of formula (I) as measured using QPatch

Nav 1.7 [3] = molecular target: T1, Nav 1.7; assay: Nav 1.7 activity in Table of Examples, no platform marker printed; assay type: cell-based; settings: no marker a/b/c printed in the cell
Source text: a.IonWork Quattro data, b=Manual patch clamp data, c=Automated patch clamp data M=Method

T1 sequence (Q15858 whole entry): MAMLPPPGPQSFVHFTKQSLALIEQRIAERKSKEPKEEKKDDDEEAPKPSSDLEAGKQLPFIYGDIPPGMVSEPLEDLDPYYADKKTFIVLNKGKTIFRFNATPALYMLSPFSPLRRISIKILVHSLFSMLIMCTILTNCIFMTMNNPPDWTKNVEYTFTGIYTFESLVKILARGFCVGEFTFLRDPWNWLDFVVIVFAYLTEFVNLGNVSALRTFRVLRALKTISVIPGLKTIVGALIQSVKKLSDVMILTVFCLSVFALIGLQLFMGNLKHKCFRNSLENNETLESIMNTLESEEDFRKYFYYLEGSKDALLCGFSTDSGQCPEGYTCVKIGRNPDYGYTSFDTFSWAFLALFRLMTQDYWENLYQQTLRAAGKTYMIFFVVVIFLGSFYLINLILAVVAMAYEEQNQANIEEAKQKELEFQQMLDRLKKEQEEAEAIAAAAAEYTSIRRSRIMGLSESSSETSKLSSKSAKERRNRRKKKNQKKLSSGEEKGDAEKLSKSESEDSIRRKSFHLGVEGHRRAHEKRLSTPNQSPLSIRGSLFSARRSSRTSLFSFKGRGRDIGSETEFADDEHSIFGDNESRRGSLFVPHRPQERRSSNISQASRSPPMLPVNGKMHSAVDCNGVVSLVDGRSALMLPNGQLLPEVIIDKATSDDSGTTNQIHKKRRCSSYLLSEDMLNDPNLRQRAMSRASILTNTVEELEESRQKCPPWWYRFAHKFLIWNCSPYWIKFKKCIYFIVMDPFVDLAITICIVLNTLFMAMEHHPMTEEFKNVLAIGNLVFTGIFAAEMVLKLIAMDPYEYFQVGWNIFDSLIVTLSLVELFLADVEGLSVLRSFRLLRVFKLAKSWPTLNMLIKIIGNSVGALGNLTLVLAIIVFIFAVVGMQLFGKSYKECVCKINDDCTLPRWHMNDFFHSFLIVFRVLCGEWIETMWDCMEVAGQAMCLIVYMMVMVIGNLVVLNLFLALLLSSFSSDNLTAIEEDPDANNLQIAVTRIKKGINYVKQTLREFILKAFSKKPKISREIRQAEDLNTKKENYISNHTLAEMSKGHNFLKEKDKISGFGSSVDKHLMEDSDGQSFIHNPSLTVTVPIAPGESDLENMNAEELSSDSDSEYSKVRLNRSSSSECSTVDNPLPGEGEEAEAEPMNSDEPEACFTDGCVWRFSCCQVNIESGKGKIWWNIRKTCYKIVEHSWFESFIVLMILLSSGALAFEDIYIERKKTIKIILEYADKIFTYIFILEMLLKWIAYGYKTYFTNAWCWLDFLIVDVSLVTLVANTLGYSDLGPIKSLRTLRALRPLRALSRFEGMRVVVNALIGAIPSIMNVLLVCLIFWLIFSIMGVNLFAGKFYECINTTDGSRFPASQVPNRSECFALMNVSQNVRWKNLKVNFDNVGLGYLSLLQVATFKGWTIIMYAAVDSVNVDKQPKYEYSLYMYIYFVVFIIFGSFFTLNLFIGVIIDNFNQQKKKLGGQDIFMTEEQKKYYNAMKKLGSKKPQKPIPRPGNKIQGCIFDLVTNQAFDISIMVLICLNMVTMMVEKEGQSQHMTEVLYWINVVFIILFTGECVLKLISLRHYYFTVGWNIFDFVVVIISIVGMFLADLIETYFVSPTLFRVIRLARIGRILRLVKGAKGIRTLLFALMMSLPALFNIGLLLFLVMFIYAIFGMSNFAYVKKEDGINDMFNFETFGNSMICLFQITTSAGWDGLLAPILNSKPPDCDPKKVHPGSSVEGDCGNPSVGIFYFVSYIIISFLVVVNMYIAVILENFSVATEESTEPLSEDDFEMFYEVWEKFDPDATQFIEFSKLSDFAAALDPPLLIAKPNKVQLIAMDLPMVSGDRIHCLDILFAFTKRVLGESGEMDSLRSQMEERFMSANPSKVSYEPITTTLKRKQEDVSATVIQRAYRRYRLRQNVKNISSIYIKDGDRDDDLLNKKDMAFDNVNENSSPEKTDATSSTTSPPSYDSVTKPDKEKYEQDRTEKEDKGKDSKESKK
T2 sequence (Q14524 whole entry): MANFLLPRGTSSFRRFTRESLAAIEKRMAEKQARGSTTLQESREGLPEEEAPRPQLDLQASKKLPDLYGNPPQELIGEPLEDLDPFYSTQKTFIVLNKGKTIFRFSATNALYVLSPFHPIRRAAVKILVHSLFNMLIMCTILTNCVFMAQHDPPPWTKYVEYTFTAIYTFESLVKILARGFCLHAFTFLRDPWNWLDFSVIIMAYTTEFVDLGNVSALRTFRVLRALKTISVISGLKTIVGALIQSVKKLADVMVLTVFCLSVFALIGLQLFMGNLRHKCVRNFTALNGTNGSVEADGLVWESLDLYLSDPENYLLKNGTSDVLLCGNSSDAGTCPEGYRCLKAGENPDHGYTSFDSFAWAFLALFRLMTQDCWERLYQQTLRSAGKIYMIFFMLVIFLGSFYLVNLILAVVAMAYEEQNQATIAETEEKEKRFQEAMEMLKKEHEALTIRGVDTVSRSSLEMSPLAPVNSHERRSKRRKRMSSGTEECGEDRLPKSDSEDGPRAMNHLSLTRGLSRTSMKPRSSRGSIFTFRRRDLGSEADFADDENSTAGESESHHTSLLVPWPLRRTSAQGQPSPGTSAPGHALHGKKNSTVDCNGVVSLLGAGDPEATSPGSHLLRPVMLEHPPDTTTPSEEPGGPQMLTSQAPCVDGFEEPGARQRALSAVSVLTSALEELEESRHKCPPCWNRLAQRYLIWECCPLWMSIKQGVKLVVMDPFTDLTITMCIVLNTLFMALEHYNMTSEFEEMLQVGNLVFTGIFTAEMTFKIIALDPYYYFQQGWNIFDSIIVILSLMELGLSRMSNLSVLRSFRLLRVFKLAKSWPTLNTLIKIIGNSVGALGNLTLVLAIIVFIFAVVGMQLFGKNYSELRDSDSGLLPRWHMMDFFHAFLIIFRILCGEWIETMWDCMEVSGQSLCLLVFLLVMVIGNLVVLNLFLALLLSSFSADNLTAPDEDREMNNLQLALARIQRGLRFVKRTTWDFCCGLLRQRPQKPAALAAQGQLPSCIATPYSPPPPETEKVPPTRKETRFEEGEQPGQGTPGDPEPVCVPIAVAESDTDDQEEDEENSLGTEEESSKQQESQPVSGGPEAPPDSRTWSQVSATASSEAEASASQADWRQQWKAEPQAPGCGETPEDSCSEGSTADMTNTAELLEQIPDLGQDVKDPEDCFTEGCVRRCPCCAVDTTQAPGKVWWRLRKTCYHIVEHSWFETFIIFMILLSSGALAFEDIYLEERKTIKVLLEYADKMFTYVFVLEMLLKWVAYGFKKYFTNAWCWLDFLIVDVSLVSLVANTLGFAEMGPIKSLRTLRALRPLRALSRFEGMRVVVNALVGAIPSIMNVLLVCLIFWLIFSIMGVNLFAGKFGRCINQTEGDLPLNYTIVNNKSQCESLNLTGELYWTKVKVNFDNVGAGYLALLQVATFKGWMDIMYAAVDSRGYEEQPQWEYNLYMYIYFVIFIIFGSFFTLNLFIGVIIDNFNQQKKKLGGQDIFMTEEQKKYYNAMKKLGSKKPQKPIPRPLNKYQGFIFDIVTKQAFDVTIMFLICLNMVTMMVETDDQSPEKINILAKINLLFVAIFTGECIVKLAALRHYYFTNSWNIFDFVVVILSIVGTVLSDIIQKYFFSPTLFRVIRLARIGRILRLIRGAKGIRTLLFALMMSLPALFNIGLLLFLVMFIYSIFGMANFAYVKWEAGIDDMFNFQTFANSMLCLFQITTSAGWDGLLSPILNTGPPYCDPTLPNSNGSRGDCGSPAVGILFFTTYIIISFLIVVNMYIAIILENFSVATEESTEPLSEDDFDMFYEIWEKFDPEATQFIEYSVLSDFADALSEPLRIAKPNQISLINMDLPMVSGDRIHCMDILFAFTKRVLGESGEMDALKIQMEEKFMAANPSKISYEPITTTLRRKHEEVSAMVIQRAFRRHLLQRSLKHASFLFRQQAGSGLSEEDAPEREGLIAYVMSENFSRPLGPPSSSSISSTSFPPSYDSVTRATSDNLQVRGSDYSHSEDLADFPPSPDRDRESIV

SMILES: Nc1nc(Nc2ccccc2)nc(-c2noc(-c3nccs3)n2)n1 [Example 130, N-Phenyl-6-(5-thiazol-2-yl-[1,2,4]oxadiazol-3-yl)-[1,3,5]triazine2,4-diamine]
- IC50 (Nav 1.7 [1]): 44 nM
- analgesic efficacy in FCA test [2]: efficacious
- IC50 (Nav1.5): 1670 nM

SMILES: CN(c1ccccc1)c1nc(N)nc(-c2noc(-c3ccc(COCC(F)(F)F)nc3)n2)n1 [Example 291, 2-N-Methyl-2-N-phenyl-6-(5-{6-[(2,2,2-trifluoroethoxy)methyl]pyridin-3-yl}-1,2,4-oxadiazol-3-yl)-1,3,5-triazine-2,4-diamine]
- IC50 (Nav 1.7 [3]): 73 nM
